Laboratory results reported in patent US5718923A, “Melt granulated sucralfate preparations and a process for their production” (Chugai Seiyaku Kabushiki Kaisha, priority 1994, dated 1998).

How the values were obtained:
Format in all cases: physicochemical
[1] = dispersed particle size (size of particles as dispersed in water), laser diffraction particle size analyzer
Method: Each of the samples thus prepared was measured for the dispersed particle size (i.e., the size of particles as dispersed in water) by means of a laser diffraction particle size analyzer (Nikkiso Co., Ltd.); in addition, the samples were analyzed for average size (at 50% cumulative frequency) and the proportion of particles not larger than 50 μm. […]

[2] = specific surface area measurement, nitrogen gas as adsorbate; conditions: Table 2
Method: Each of the samples thus prepared was measured for the dispersed particle size by means of a laser diffraction particle size analyzer; in addition, a specific surface area measurement was conducted before and after the granulation by means of a specific surface area measuring instrument (Shimadzu Corp.) using nitrogen gas as adsorbate.

[3] = particle size of the comminuted powder (hammer mill); conditions: comminuted with a hammer mill at about 3,000-3,600 rpm
Method: A dry powder sucralfate (as specified in Pharmacopoeia of Japan, JP) was comminuted with a hammer mill at about 3,000-3,600 rpm.

[4] = Table 2, sucralfate:polyethylene glycol mixing proportions
[5] = Table 2, sucralfate:polyethylene glycol mixing proportions, melt granulated at 300 rpm to 65° C.

Row | Substance | Dispersed particle size, Average ([1]; Table 1, average size at 50% cumulative frequency, dispersed in water) [μm] | Dispersed particle size, Percent 50 μm and less ([1]; Table 1, dispersed in water) [%] | Dispersed particle size, Percent 50 μm and less [1, 4] [%] | Dispersed particle size, Average [1, 5] [μm] | Specific surface area [2] [m^2 /g] | particle size of comminuted powder, in words [3]
1 | sucralfate [Comminuted sucralfate powder] | 4.4 | 100.0 | 100.0 | 4.4 | 5.1 | entirely composed of particles not larger than 50 μm
2 | sucralfate [Sucralfate of JP] |  |  | 86.2 | 18.6 | 1.6 | 
